Series [1] in a line: Stability of the powder in sealed aluminium foil bag, purity and titre by HPLC after 6 and 12 months. The class given is physicochemical. As to conditions: airtight container, protected from light; for Starting values Purity / Starting values Titre: start. As to the method:
The stability of the compounds listed in the following table, under powder form and in sealed aluminium foil bag, was tested, keeping the samples in airtight container, protected from light and measuring the purity and the titre thereof after 6 and 12 months.
In particular, the stability of the acid moiety was observed by HPLC, detecting the purity and titre thereof.

The conditions of series [2]: general knowledge stated in the introduction; cited from earlier work.
The conditions of series [3]: after twelve months; US 6,441,168 (Example 1); 525600 min; cited from earlier work.

We go through seven compounds from patent publication EP2245032B1, “FOLATES, COMPOSITIONS AND USES THEREOF” (priority 2008, dated 2009).

Counter-ions that a name gives are not always drawn.

As to `Nc1nc2ncc(CNc3ccc(C(=O)N[C@@H](CCC(=O)O)C(=O)O)cc3)nc2c(=O)[nH]1` [D-GLU folate, D-glucosamine L-folate], in series [1], the “After 6 months Purity” value turned out to be 98.8, the “After 6 months Titre” value worked out at 54.3, the “After 12 months Purity” value amounted to 98.7 and the “After 12 months Titre” value is 54.0. Also, in series [1], the “Starting values Purity” value worked out at 99.1 and the “Starting values Titre” value is 54.6.

As for `CN1c2c(nc(N)[nH]c2=O)NCC1CNc1ccc(C(=O)NC(CCC(=O)O)C(=O)O)cc1` [D-GLU (6S)-5-MTHF, D-glucosamine 5-methyl-(6S)-tetrahydrofolate], in series [1], the “After 6 months Purity” value worked out at 99.0, the “After 6 months Titre” value was found to be 55.4, the “After 12 months Purity” value amounted to 98.5 and the “After 12 months Titre” value was 55.1. Also, in series [1], the “Starting values Purity” value came out at 99.3 and the “Starting values Titre” value is recorded as 55.7.

Take `CN1c2c(nc(N)[nH]c2=O)NCC1CNc1ccc(C(=O)N[C@@H](CCC(=O)O)C(=O)O)cc1` (stereo partly drawn) [D-GAL (6R,S)-5-MTHF, D-galactosamine 5-methyl-(6R,S)-tetrahydrofolate]: in series [1], the “After 6 months Purity” value amounted to 98.9, the “After 6 months Titre” value stood at 55.2, the “After 12 months Purity” value is recorded as 98.7 and the “After 12 months Titre” value turned out to be 55.3. In series [1], the “Starting values Purity” value is 99.1 and the “Starting values Titre” value is listed as 55.5.

Regarding `Nc1nc2ncc(CNc3ccc(C(=O)N[C@@H](CCC(=O)O)C(=O)O)cc3)nc2c(=O)[nH]1` [D-GAL folate, D-galactosamine L-folate], in series [1], the “After 6 months Purity” value is reported as 99.1, the “After 6 months Titre” value was determined as 54.5, the “After 12 months Purity” value stood at 98.7 and the “After 12 months Titre” value was 54.2. Further, in series [1], the “Starting values Purity” value amounted to 99.2 and the “Starting values Titre” value is 54.8.

As for `Nc1nc2ncc(CNc3ccc(C(=O)N[C@@H](CCC(=O)O)C(=O)O)cc3)nc2c(=O)[nH]1` [Folic acid, N-[4-[[(2-amino-1,4-dihydro-4-oxo-6-pteridinyl)methyl]amino]benzoyl]-L-glutamic acid], the “solubility in water (in words)” value in series [2] is listed as “very slightly soluble in water”.

As for `CN1c2c(nc(N)[nH]c2=O)NCC1CNc1ccc(C(=O)NC(CCC(=O)O)C(=O)O)cc1` [5-methyl-(6S)-tetrahydrofolic acid calcium salts], in series [3], the titre decrease entry is “about 1%”.

Take `CN1c2c(nc(N)[nH]c2=O)NCC1CNc1ccc(C(=O)N[C@@H](CCC(=O)O)C(=O)O)cc1` (stereo partly drawn) [D-GLU 5-MTHF, D-glucosamine 5-methyl-(6R,S)-tetrahydrofolate]: in series [1], the “After 6 months Purity” value is given as 98.9, the “After 6 months Titre” value came out at 55.0, the “After 12 months Purity” value came out at 99.0 and the “After 12 months Titre” value is 54.8. In series [1], the “Starting values Purity” value stood at 99.1 and the “Starting values Titre” value stood at 55.2.
